Test results reported in patent publication US20240345095A1, “AN ASSAY FOR DETERMINING GASTROINTESTINAL PERMEABILITY BY DETERMINING A RATIO OF THE CONCENTRATION OF LACTULOSE TO THE CONCENTRATION OF GALACTOSE IN THE BLOOD SAMPLE” (TriviumVet Designated Activity Company, priority 2021, published 2024).

How the values were obtained:
[1] = Plasma absorption time course of lactulose and galactose after oral administration (findings stated in the summary); assay type: in vivo
[2] = target: H-2 receptors on the parietal cell (Homo sapiens, UniProt P25021); conditions: human subjects, administered intravenously; cited from earlier work
Sequence of H-2 receptors on the parietal cell (P25021 whole entry): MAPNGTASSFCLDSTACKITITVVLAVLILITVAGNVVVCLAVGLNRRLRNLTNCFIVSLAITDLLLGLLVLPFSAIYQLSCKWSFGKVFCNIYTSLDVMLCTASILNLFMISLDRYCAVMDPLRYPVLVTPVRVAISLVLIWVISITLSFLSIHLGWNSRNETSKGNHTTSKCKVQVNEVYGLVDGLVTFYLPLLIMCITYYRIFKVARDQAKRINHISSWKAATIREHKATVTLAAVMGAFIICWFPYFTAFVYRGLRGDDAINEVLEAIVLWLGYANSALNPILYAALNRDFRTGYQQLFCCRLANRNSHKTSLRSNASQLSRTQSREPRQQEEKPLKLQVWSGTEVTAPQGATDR

gastric ulcers = conditions: foals, ulcers associated with intravenous administration of high-dose NSAIDs; cited from earlier work

## OC[C@H]1O[C@@H](O[C@@H]2[C@@H](CO)OC(O)(CO)[C@H]2O)[C@H](O)[C@@H](O)[C@H]1O (mixture of isomers) [Lactulose, lactulose]
[1]; after oral administration
  Time after which the rate of lactulose absorption slows: approximately 60 minutes
[1]; health and disease states, after oral administration
  Period over which lactulose absorption occurs: up to 3 hours

## O=C[C@H](O)[C@@H](O)[C@@H](O)[C@H](O)CO [galactose]
[1]; after oral administration
  Time at which galactose absorption peaks: ≤ 15 min
[1]; after oral administration, majority of individuals tested
  Time galactose remains present in plasma at measurable micromolar concentrations: approximately 60 minutes
[1]; galactose concentrations below 2% in the oral solution
  Time to peak plasma concentrations of galactose: ≤ 5 min

## NC(N)=Nc1nc(CSCCC(N)=NS(N)(=O)=O)cs1 [famotidine]
[2]
  Time to pharmacological tolerance: 12-72 hours

## sucralfate
Gastric ulcers
  Effect on gastric ulcers: protective effect
